Experimental data: US7868037B2 (PTC Therapeutics, Inc., priority 2004, dated 2011)
Like-named read-outs stand apart in the source and are kept apart here.

Legend:
HCV replicon = experiment: microbe, parasite or virus in culture; type: cell-based, hepatitis C virus; settings: Hepatitis C virus

SMILES	IC50 (HCV replicon; read-out: Replicon IC50 μM) [µM]	melting point [°C]	IC50 (HCV replicon; read-out: Replicon IC50) [µM]
CCn1c(N2CCN(C(=O)OC(C)(C)C)CC2)c(C#N)c2ccc(C(F)(F)F)cc21 [Compound 785, 4-(3-cyano-1-ethyl-6-trifluoromethyl-1H-indol-2-yl)-piperazine-1-carboxylic acid tert-butyl ester]	0.5 to 2	151 to 153	
CCn1c(I)c(C#N)c2cc([N+](=O)[O-])c(OC)cc21 [Compound 499, 1-ethyl-2-iodo-6-methoxy-5-nitro-1H-indole-3-carbonitrile]		235 to 250	< 0.5
CCn1c(-c2ccc(Nc3nc(-c4ccccc4)nc4ccccc34)cc2)c(C#N)c2ccc(OC)cc21 [Compound 458, 1-ethyl-6-methoxy-2-[4-(2-phenylquinazolin-4-ylamino)-phenyl]-1H-indole-3-carbonitrile]		272 to 273	> 2
CCn1c(-c2ccc(N(CCOC(C)=O)S(C)(=O)=O)cc2)c(C#N)c2ccc(OC)cc21 [Compound 815, N-(2-acetoxyethyl)-N-[4-(3-cyano-1-ethyl-6-methoxy-1H-indol-2-yl)-phenyl]methanesulfonamide]	> 2	153 to 154	
CCn1cc(C#N)c2ccc(NC(=O)OC(C)(C)C)cc21 [Compound 16, t-butyl(3-cyano-1-ethyl-1H-indol-6-yl)-carbamate]	> 2	175 to 177	
CCn1cc(C#N)c2ccc(Oc3cnccn3)cc21 [Compound 13, 1-ethyl-6-(pyrazin-2-yloxy)-1H-indole-3-carbonitrile]	> 2	161 to 164	
CCn1c(-c2ccc(N3CCCS3(=O)=O)cc2)c(C#N)c2ccc(OC(C)C)cc21 [Compound 666, 2-[4-(1,1-dioxo-1λ^6-isothiazolidin-2-yl)phenyl]-1-ethyl-6-isopropoxy-1H-indole-3-carbonitrile]	< 0.5	207 to 209	
CCn1c(C#Cc2ccc(N3CCNC3=O)cc2)c(C#N)c2ccc(OC)cc21 [Compound 166, 1-ethyl-6-methoxy-2-[4-(2-oxo-imidazolidin-1-yl)-phenylethynyl]-1H-indole-3-carbonitrile]	< 0.5	236 to 240	
CCOc1ccc2c(C#N)c(-c3ccc(NP(=O)(OCC)OCC)cc3)n(CC)c2c1 [Compound 772]	< 0.5	211 to 212	
CCn1c(-c2ccc(NC(C)=O)cc2)c(C#N)c2ccc(OC)cc21 [Compound 128, N-[4-(3-Cyano-1-ethyl-6-methoxy-1H-indol-2-yl)-phenyl]-acetamide]	> 2	218 to 220	
CCn1c(C#Cc2ccc(NC(C)=O)cc2)c(C#N)c2ccc(OC)cc21 [Compound 138, N-[4-(3-cyano-1-ethyl-6-methoxy-1H-indol-2-ylethynyl)-phenyl]-acetamide]	0.5 to 2	235 to 239	
CCn1c(C#Cc2ccc(F)cc2)c(C#N)c2ccc(OC)cc21 [Compound 67, 1-ethyl-2-(4-fluorophenylethynyl)-6-methoxy-1H-indole-3-carbonitrile]	0.5 to 2	132 to 136	
CCn1cc(C#N)c2ccc(C(=O)Nc3ccccc3)cc21 [Compound 15, 3-cyano-1-ethyl-1H-indole-6-carboxylic acid phenylamide]	> 2	225 to 226	
CCc1nc(-c2cn(CC)c3cc(OC)ccc23)no1 [Compound 28, 1-ethyl-3-(5-ethyl-[1,2,4]oxadiazol-3-yl)-6-methoxy-1H-indole]	0.5 to 2	68 to 70	
CCCn1c(-c2ccc(N3CCCS3(=O)=O)cc2)c(-c2cnco2)c2ccc(OC)cc21 [Compound 805]	> 2	217 to 222	
CCn1c(-c2ccc3c(c2)N(C)C(=O)CO3)c(C#N)c2ccc(OC)cc21 [Compound 339, 1-ethyl-6-methoxy-2-(4-methyl-3-oxo-3,4,-dihydro-2H-benzo[1,4]oxazin-6-yl)-1H-indole-3-carbonitrile]	0.5 to 2	215 to 219	
CCn1c(-c2ccc(N3CCCS3(=O)=O)cc2)c(C#N)c2ccc(OCCN3CCOCC3)cc21 [Compound 729, 2-[4-(1,1-dioxo-1λ^6-isothiazolidin-2-yl)-phenyl]-1-ethyl-6-(2-morpholin-4-yl-ethoxy)-1H-indole-3-carbonitrile]	> 2	213 to 217	
CCn1c(-c2ccc(N3CCNS3(=O)=O)cc2)c(C#N)c2ccc(OC)cc21 [Compound 725, 2-[4-(1,1-dioxo-1λ^6-[1,2,5]thiadiazolidin-2-yl)phenyl]-1-ethyl-6-methoxy-1H-indole-3-carbonitrile]	0.5 to 2	215 to 216	
CCn1cc(-c2ncco2)c2ccc(C(=O)OC)cc21 [Compound 75, methyl 1-ethyl-3-oxazol-2-yl-1H-indole-6-carboxylate]	> 2	118 to 123	

SMILES	IC50 (HCV replicon; read-out: Replicon IC50 μM) [µM]	melting point [°C]	IC50 (HCV replicon; read-out: Replicon IC50) [µM]
CCn1c(-c2ccc(N(C)S(=O)(=O)CCN3CCOCC3)cc2)c(C#N)c2ccc(OC)cc21 [Compound 668]	0.5 to 2	171 to 174	
CCn1c(-c2ccc(OCCOC)cc2)c(C#N)c2ccc(OC)cc21 [Compound 248, 1-ethyl-6-methoxy-2-[4-(2-methoxyethoxy)-phenyl]-1H-indole-3-carbonitrile]	0.5 to 2	117 to 121	
CCn1c(-c2ccc(C(=O)N3CCOCC3)cc2)c(C#N)c2cc(OC)ccc21 [Compound 245, 1-ethyl-5-methoxy-2-[4-(morpholine-4-carbonyl)-phenyl]-1H-indole-3-carbonitrile]	> 2	192 to 195	
CCOc1ccc2c(C(=O)N(C)C)c(-c3ccc(N4C(=O)CN(C)C4=O)cc3)n(CC)c2c1 [Compound 781, N,N-Dimethyl-6-ethoxy-1-ethyl-2-[4-(3-methyl-2,5-dioxo-imidazolidin-1-yl)-phenyl]-1H-indole-3-carboxamide]	< 0.5	207 to 208	
CCOC(=O)Nc1ccc(-c2c(C#N)c3ccc(OC)cc3n2CC)cc1 [Compound 121, [4-(3-cyano-1-ethyl-6-methoxy-1H-indol-2-yl)-phenyl]-carbamic acid ethyl ester]	0.5 to 2	167 to 169	
CCn1c(-c2ccc(N(CCO)S(C)(=O)=O)cc2)c(C#N)c2ccc(OC)cc21 [Compound 828, N-[4-(3-cyano-1-ethyl-6-methoxy-1H-indol-2-yl)-phenyl]-N-(2-hydroxyethyl)-methanesulfonamide]	0.5 to 2	198 to 200	
CCn1c(-c2cccc(NC(N)=S)c2)c(C#N)c2ccc(OC)cc21 [Compound 767, [3-(3-cyano-1-ethyl-6-methoxy-1H-indol-2-yl)-phenyl]-thiourea]	< 0.5	204 to 205	
COc1ccc2c(C#N)c(-c3ccc(N4CCCS4(=O)=O)cc3)n(CC3CC3)c2c1 [Compound 716, 2-[4-(1,1-dioxidoisothiazolidin-2-yl)phenyl]-1-cyclopropylmethyl-6-methoxy-1H-indole-3-carbonitrile]	< 0.5	204 to 205	
CCn1c(-c2ccc(OCCN=[N+]=[N-])cc2)c(C#N)c2ccc(OC)cc21 [Compound 266, 2-[4-(2-azidoethoxy)phenyl]-1-ethyl-6-methoxy-1H-indole-3-carbonitrile]	0.5 to 2	96 to 99	
CCn1c(-c2ccc(OCCNC(C)=O)cc2)c(C#N)c2ccc(OC)cc21 [Compound 274, N-{2-[4-(3-cyano-1-ethyl-6-methoxy-1H-indol-2-yl)-phenoxy]-ethyl}acetamide]	> 2	166 to 172	
CCn1c(-c2ccc3c(c2)NC(=O)CO3)c(C#N)c2ccc(OC)cc21 [Compound 334, 1-ethyl-6-methoxy-2-(3-oxo-3,4-dihydro-2H-benzo[1,4]oxazin-6-yl)-1H-indole-3-carbonitrile]	0.5 to 2	242 to 246	
CCn1cc(-c2ccn[nH]2)c2ccc(OC)cc21 [Compound 59, 1-ethyl-6-methoxy-3-(2H-pyrazol-3-yl)-1H-indole]	> 2	81 to 85	
CCn1c(C#Cc2ccc(N(C)S(=O)(=O)CC)cc2)c(C#N)c2ccc(OC)cc21 [Compound 157]	0.5 to 2	149 to 153	
CCCOC(=O)Nc1ccc2c(C#N)cn(-c3ccc(OC)cc3)c2c1 [Compound 97, [3-Cyano-1-(4-methoxyphenyl)-1H-indol-6-yl]-carbamic acid propyl ester]	> 2	164 to 167	
CCOC(=O)Nc1ccc2c(C#N)c(-c3ccc(OCC)cc3)n(CC)c2c1 [Compound 838, [3-cyano-2-(4-ethoxyphenyl)-1-ethyl-1H-indol-6-yl]-carbamic acid ethyl ester]	0.5 to 2	193 to 194	
CCn1c(-c2ccc(OCC(=O)N3CC[C@H](O)C3)cc2)c(C#N)c2ccc(OC)cc21 [Compound 285, 1-ethyl-2-{4-[2-(3-hydroxypyrrolidin-1-yl)-2-oxo-ethoxy]phenyl}-6-methoxy-1H-indole-3-carbonitrile]	> 2	185 to 190	
CCn1c(-c2ccc(S(C)(=O)=O)cc2)c(C#N)c2ccc(OC)cc21 [Compound 265, 1-ethyl-2-(4-methanesulfonylphenyl)-6-methoxy-1H-indole-3-carbonitrile]	> 2	204 to 206	
CCNC(=O)Nc1ccc2c(C#N)c(-c3ccc(OCC)cc3)n(CC)c2c1 [Compound 839, 1-[3-cyano-2-(4-ethoxyphenyl)-1-ethyl-1H-indol-6-yl]-3-ethyl-urea]	> 2	249 to 250	
CCc1nnc(-c2cn(CC)c3cc(OC)ccc23)o1 [Compound 54, 1-ethyl-6-methoxy-3-(5-ethyl-[1,3,4]oxadiazol-2-yl)-1H-indole]	> 2	99 to 101	
